Experiment: Elimination of jejunal piperacillin during parenteral piperacillin/tazobactam therapy, canine model
Assay type: in vivo, beagle dogs
Settings: i.v. 100 mg piperacillin and 12.5 mg tazobactam per kg; experiment 1; compared with ampicillin or amoxicillin
Protocol: Beagle dogs were treated with a combination of piperacillin and tazobactam without and with simultaneous beta-lactamase therapy. The experiments were performed essentially as those described in Examples 1 and 2, except that a single dose of the piperacillin/tazobactam combination contained 100 mg of piperacillin and 12.5 mg of tazobactam per kg of body weight, and the HPLC analysis method was elaborated to be suitable for analysis of piperacillin (the limit of quantification was 10 micrograms per gram of jejunal chyme).
Piperacillin values in experiment 1 represent jejunal piperacillin concentrations achieved after two separate administrations of piperacillin/tazobactam at a dosing interval of 6 hours without beta-lactamase treatment. Beagle dogs were treated with a piperacillin/tazobactam combination with concurrent beta-lactamase therapy in experiment 2.
The experiment was repeated except that the single dose of beta-lactamase pellets contained about 0.3 mg of active beta-lactamase per kg of body weight, and the single dose of the piperacillin/tazobactam combination contained 65.6 mg of piperacillin and 9.4 mg of tazobactam per kg of body weight.

## CCN1CCN(C(=O)N[C@@H](C(=O)N[C@@H]2C(=O)N3[C@@H]2SC(C)(C)[C@@H]3C(=O)O)c2ccccc2)C(=O)C1=O [piperacillin]
  biliary elimination of piperacillin without beta-lactamase: considerably higher than that of ampicillin or amoxicillin
